In patent US9944721B2, “Polysialic acid and use for treatment of neurodegenerative and neuroinflammatory diseases” (RHEINISCHE FRIEDRICH-WILHELMS UNIVERSITÄT BONN, priority 2013, dated 2018):

Legend:
[1] = test system: humanized Siglec-11 transgenic mice or littermate control mice; assay: Laser-induced animal model of macular degeneration, intravitreal injection; assay type: in vivo
From the text: An animal model of macular degeneration was induced by laser technology. Experimental damage of the mouse retina using a laser is a well-accepted animal model for age-related macular degeneration. Laser coagulation and direct damage of Bruch's membrane rapidly lead to microglia and complement activation and induce vascular leakage. Fluorescence angiography is an established method to detect vascular leakage in the retina.
Humanized Siglec-11 transgenic mice (Wang Y, 2009, dissertation, University Bonn, uniform resource name: urn:nbn:de:hbz:5N-18095) or littermate control mice were used in this experiment.
Three argon laser coagulation spots were induced (125 mW, 100 ms, […], Viridis, Quantel Medical, France) in the retina of the mice. Directly afterwards the mice were injected intra-vitreally with PSA-20 (3 μg/per eye) or a PBS vehicle control.
Retinal tissue was analyzed 48 hours after the laser lesion by immunohistochemistry. Therefore, whole mount immunostaining was performed with a polyclonal rabbit-anti-ionized calcium-binding adapter molecule 1 (Iba1) antibody followed by fluorescein (FITC)-conjugated secondary antibody directed against rabbit immunoglobulin (IgG). Confocal images of the inner plexiform layer from the retina were collected and the percentage of the activated amoeboid microglia in relation to the total Iba1-positive microglia was determined in and outside the laser lesion of the PSA-20 treated Siglec-11 and the control mice.
To determine the inflammation mediated vascular leakage, fluorescein angiography was performed 48 hours after laser coagulation lesion of the retina. In detail, anesthetized animals were injected intraperitoneally with 0.1 ml 2.5% fluorescein in 0.9% sterile NaCl. Late stage angiography pictures were taken eleven minutes after fluorescein injection on a Spectralis HRA2 retina angiograph (Heidelberg Engineering) to visualize vessel leakage. Angiography pictures were exported from Heidelberg Eye Explorer Software as jpeg files. Pixel intensities of 6 regions of interest (roi) per picture were quantified with ImageJ and background fluorescence was subtracted.
At 48 hours before angiography, three argon laser coagulation spots were induced (125 mW, 100 ms, 100 μm, Viridis, Quantel Medical, France) in the retina of the Siglec-11 transgenic or littermate control mice. Mice were injected intra-vitreally with PSA-20 (3 μg/per eye) or a PBS vehicle control. […] Statistically significant groups were determined by One-Way ANOVA and Student's t-test. […]
Again, the laser damage of retinas was induced in the humanized Siglec-11 transgenic mice or littermate controls as described above. […] Single data points indicate individual eyes analyzed. Data were analyzed by ordinary one-way ANOVA followed by Tukey's multiple comparisons test. […]

[2] = test system: human iPS cell derived neurons; assay: MTT cell viability of human iPS cell derived neurons; assay type: cell-based; details: 24 hours
Protocol: Human induced pluripotent stem (iPS) cells (Foreskin-1, WiCell) were used for generation of primitive neural stem cell (pNSC) and their differentiation into neurons according to a modified protocol, which was described to obtain primitive neural precursors from human embryonic stem cells. Briefly, iPS cells were cultured on feeder cells to form small colonies. Next, medium was changed to neural stem cell medium (DMEM/F12:Neurobasal; GIBCO) in the presence of leukaemia inhibiting factor (LIF; Millipore, 10 ng/ml) and three small molecules CHIR99021 (inhibitor of GSK-30, Axon Medchem, […]) and SB431542 (inhibitor of TGF-β and activin receptors; Axon Medchem, 3 μM), and Compound E (inhibitor of γ-secretase; Axon Medchem, 0.1 μM) for 10 days. […]
Cell viability was determined by the (3-(4,5-Dimethylthiazol-2-yl)-2,5-diphenyltetrazolium bromide (MTT) assay (Millipore). Cells were treated for 24 hours with 5 nM, 15 nM, 50 nM, 150 nM, 500 nM, 1.5 μM, 5 μM, 15 μM, 50 μM or 150 μM of PSA-20. After 20 hours of stimulation, 10 μl of MTT-reagent was added and cells were cultured for another 4 hours. Then, cells were lysed with isopropanol containing 0.04 M HCl 1M to measure the dye formazan. The light absorbance of the purple formazan dye was determined by a spectrophotometer at a wavelength of 570 nm with a reference wavelength of 630 nm (Perkin Elmer, Envision Multiplate Reader). […]

Substance: poly-(α(2→8)Neu5Ac)n [PSA-20]
- Microglial activation (activated amoeboid microglia to total Iba1-positive microglia) ([1]; Siglec-11 transgenic mice, 3 μg/per eye intravitreal, 48 hours after laser lesion, FIG. 7D): significantly reduced
- vascular leakage (fluorescein angiography) ([1]; Siglec-11 transgenic mice, 3 μg/per eye intravitreal, 48 hours after laser, FIG. 7E): significantly reduced vascular leakage
- microglial Iba1 immunoreactivity ([1]; normal mice, 3 μg/per eye intravitreal, 48 hours after laser lesion): No effect
- vascular leakage (fluorescein angiography) ([1]; repeat, at least 8 retinas per group, Siglec-11 transgenic mice, 48 hours, vehicle 117.8+/−7.8, FIG. 7G): 84.07+/−8.2
- cell viability of human neurons (MTT) ([2]; 5 nM to 150 μM, FIG. 10A): not reduced
- neuronal cell viability (MTT) ([2]; 150 μM): no interference
